Values of other authors as cited in patent US20250073197A1, “THE ANTI-INFLAMMATORY ROLE OF CANNABIDIOL, RETINYL PALMITATE, BETA-CARYOPHYLLENE AND TRIBUTYRIN WHEN ADMINISTERED IN CONJUNCTION” (FLG Sciences, LLC, priority 2023, published 2025).

What was measured:
[1] = use in the disease named in Table 1 (Diabetes or Dyslipidemia)
[2] = tested on: 24,000 gene probes

## Cn1c(COc2ccc(CC3SC(=O)NC3=O)cc2)nc2ccccc2c1=O (stereo not shown) [Balaglitazone]
[1]
  Side effect: Edema

## CC(C)(Oc1ccc(CCNC(=O)c2ccc(Cl)cc2)cc1)C(=O)O [Bezafibrate]
[1]
  Side effect: Hepatotoxicity

## CC(C)OC(=O)C(C)(C)Oc1ccc(C(=O)c2ccc(Cl)cc2)cc1 [Fenofibrates]
[1]
  Side effect: Pancreatitis

## CCc1ccc(CCOc2ccc(CC3SC(=O)NC3=O)cc2)nc1 (stereo not shown) [Pioglitazone]
[1]
  Side effect: Edema

## CN(CCOc1ccc(CC2SC(=O)NC2=O)cc1)c1ccccn1 (stereo not shown) [Rosiglitazone]
[1]
  Side effect: Edema

## cannabidiol [CBD]
[2]; Illumina gene array
  gene transcripts down-regulated: 524
  gene transcripts up-regulated: 680
  genes downregulated 2-fold or more: 38
  transcripts upregulated 2-fold or more: 123
[2]; Illumina gene array, 24,000 gene probes
  gene transcripts significantly regulated: 1204
